Experimental data published in US9539341B2, “Methods and compositions for targeting adipose cells in mammals” (Board of Regents, the University of Texas System, priority 2011, dated 2017).
“Also recorded” adds a separate entry of the source.

Assays:
[1] = tested on: C34+CD31−CD45− cells isolated from lung; experiment: In vivo competition (re-homing) assay of 11 admixed phage clones, lung; parameters: species or system mouse; conditions: equal amounts of 11 phage clones mixed and injected; percent of sequenced clones on C34+CD31−CD45− cells from lung
Procedure: (§1) For competitive homing experiment, 5×10^9 TU for each of the 11 chosen phage clones were admixed and the combined 5.5×10^10 TU was injected. For validation of individual clones, 1×10^10 TU for each phage clones was injected. After 1 hr of circulation and heart perfusion with 10 ml of phosphate buffer saline (PBS), WAT, tibia/femurs, bone-associated skeletal muscle, and lungs were collected. Bone marrow was isolated by flushing tibia/femurs. Hematopoietic and endothelial cells were depleted from cell suspensions of each organ by Dynabeads (Invitrogen) coated with anti-TER119, anti-CD31, and anti-CD45 antibodies (BD Biosciences), after which the remaining cells were processed by FACS to purify CD34+CD31−CD45− cells. Bound phage were recovered by infecting K91 E. coli, quantified by phage transforming unit (TU) counting, and processed for sequencing of the peptide-coding DNA as described in Arap, et al. 2002, ibid and Kolonin, et al., 2006, ibid. For identification of conserved peptide motifs, ClustalW2 software was used.
(§2) After 4 rounds of synchronous in vivo biopanning, eight CX7C and CX8C sequences repeatedly recovered from ASC with frequency above 1% were identified, which were termed WAT1 through WAT8 (see Table 1 below). In parallel, a matched number of peptide inserts homing to lung stromal cells (LSC) were sequenced as a control. None of the WAT-homing peptides were enriched in the lung. Four sequences repeatedly recovered in the lung with frequency above 1%, were termed LU1 through LU4 (see Table 1 below). […] Because the focus of this study is WAT-specific MSC, this clone was excluded from further analysis. Other selected peptides were subjected to an in vivo competition assay in order to identify those with the highest specificity of binding. Equal amounts of phage for the 11 clones displaying peptides WAT1 through WAT7 (SEQ ID NOS: 1-14) and LU1 through LU4 (SEQ ID NOS: 17-24) were admixed and injected into a mouse. Homing specificity of each clone was assessed by quantifying frequency of phage coding for each peptide selected on C34+CD31−CD45− cells isolated from either WAT or lung.

[2] = tested on: CD34+CD31−CD45− cells (MSC) from WAT; experiment: Synchronous in vivo phage display biopanning, clones recovered from WAT MSC (ASC); parameters: species or system mouse; conditions: percent of sequenced phage clones carrying the insert in WAT after 4 rounds of synchronous in vivo biopanning on CD34+CD31−CD45− cells
Description: (§3) Phage Library Screening: Random peptide libraries based on the M13-derived bacteriophage vector fUSE5 displaying inserts CX7C, CX8C, and CX9C on the pIII protein were admixed (1:1:1) to the combined 10^10 TU of mixed library for the screen performed based on the synchronous biopanning in vivo upon tail vein injection (see for example, US20050074747 and Arap, et al., Nat. Med. 8:121-127, 2002; Kolonin, et al., FASEB J. 20: 979-981, 2006).
as §1
(§4) Methods for isolation of MSC by fluorescence-activated cell sorting (FACS) from organ cell suspensions based on the C34+CD31−CD45− immunophenotype (FIG. 8B) were combined with phage display and optimized for ASC. By adapting the previously described “synchronous in vivo biopanning” method of (Kolonin et al., 2006, ibid), a mixture of cyclic CX7C, CX8C, and CX9C (C: disulfide-bonded cysteines; X: any amino acid) random peptide libraries was screened (FIG. 1A). This approach made it possible to select MSC probes from the pool of over 10^11 combinatorial peptides. Throughout the screen, progressive enrichment in the number of phage particles recovered on MSC from WAT, as well as from the chosen control organs: lung, bone marrow, and skeletal muscle (FIG. 1B) was observed.
as §2
(§5) Shown in Table 1 above are the percent (%) of the sequenced phage clones that carried the indicated WAT or LU insert present within WAT (% in WAT) or lung (% in LUNG) following 4 rounds of synchronous in vivo biopanning on CD34+CD31−CD45− cells.

[3] = tested on: CD34+CD31−CD45− cells (MSC) from lung; experiment: Synchronous in vivo phage display biopanning, clones recovered from lung MSC (LSC); parameters: species or system mouse; conditions: percent of sequenced phage clones carrying the insert in lung after 4 rounds of synchronous in vivo biopanning on CD34+CD31−CD45− cells
Description: as §3, §1, §4, §2, §5

[4] = tested on: stroma/vasculature of lung; experiment: Biodistribution of peptide-displaying phage by anti-phage immunofluorescence, lung; type: in vivo, mouse; conditions: intravenous injection, immunofluorescence of tissue sections
Description: (§6) FIGS. 2A-J depict the validation of cyclic WAT7 Peptide (SEQ ID NOS: 13) Homing to ASC. Panels A-D are confocal anti-phage (red) and anti-CD31 (bright green) immunofluorescence in paraffin sections of formalin-fixed WAT and lung from mice intravenously injected with phage displaying WAT-homing peptide WAT7 (SEQ ID NOS: 13 AND 14) or a lung-homing peptide LU2 (SEQ ID NOS: 19). […] upon digital channel merging indicates localization (arrow) of phage on non-endothelial perivascular cells observed for WAT7 (SEQ ID NOS: 13) in WAT (A) but not in lung (B), and for LU2 (SEQ ID NO: 19) in lung (D) but not in WAT (C). […] Note the association (arrow) of cyclic WAT7 (SEQ ID NOS: 13) specifically with perivascular WAT cells (E) in a pattern overlapping with PDGFRβ expressed on ASC (F-G). Like PDGFRβ, WAT7 is not associated with CD31+ endothelial cells (E) or CD45+ hematopoietic cells (H). WAT7 was not detected in lung (I) despite the abundance of PDGFRβ+LSC (J). Nuclear TOPRO3 staining is blue. Scale bar: 100 μM.
(§7) Mouse Tissue and Cell Analysis by Immunofluorescence: Peptides chemically synthesized, cyclized via their N- and C-terminal cysteines, purified to at least 95% purity (Genemed), and biotinylated were injected (500 μg) via tail vein and allowed to circulate for 1 hr. […] Fluorescence images were acquired with an Olympus IX70 inverted fluorescence microscope/Magnafire software (Olympus). […]

[5] = tested on: C34+CD31−CD45− cells isolated from WAT; experiment: In vivo competition (re-homing) assay of 11 admixed phage clones, WAT; parameters: species or system mouse; conditions: equal amounts of 11 phage clones mixed and injected; percent of sequenced clones on C34+CD31−CD45− cells from WAT
Procedure: as §1, §2

[6] = tested on: WAT CD34+CD31−CD45− cells (ASC) versus lung CD34+CD31−CD45− cells (LSC); experiment: Homing of individual phage-peptide clones injected separately, TU on WAT vs lung MSC; type: in vivo, mouse; conditions: individual phage clones injected into mice, FIG. 1C
Description: FIGS. 1A-C depict the screen for MSC-homing peptides. (A) depicts the schematic for a screen for peptides homing to organ-specific MSC populations. […] In every selection round, erythroid (TER119+), endothelial (CD31+) and hematopoietic (CD45+) cells were immunodepleted and then FACS was used to collect CD34+CD31−CD45− cells (MSC) from WAT, lung, bone marrow, and skeletal muscle. (B) Phage-peptides bound to WAT MSC (ASC), in parallel with phage-peptides bound to MSC of control organs, were quantified, amplified, pooled, and used for the next round of biopanning. Increased recovery of phage transforming units (TU) in successive rounds reflects the enrichment of phage-peptides homing to MSC of individual target organs. (C) Relative specificity of ASC homing assessed for individual phage-peptide clones separately injected into mice as a ratio of TU recovered on WAT to CD34+CD31−CD45− to TU recovered on lung CD34+CD31−CD45− cells. Fd-Tet: control insertless phage. Values shown are mean±SD for triplicate measurements.
For competitive homing experiment, 5×10^9 TU for each of the 11 chosen phage clones were admixed and the combined 5.5×10^10 TU was injected. […] Bound phage were recovered by infecting K91 E. coli, quantified by phage transforming unit (TU) counting, and processed for sequencing of the peptide-coding DNA as described in Arap, et al. 2002, ibid and Kolonin, et al., 2006, ibid. […]

[7] = tested on: perivascular WAT cells (PDGFRβ+ ASC); experiment: Biodistribution of biotinylated synthetic cyclic peptide (streptavidin-Cy3), WAT; type: in vivo, mouse; conditions: biotinylated cyclic peptide i.v., 1 hr, CD31 / CD45 co-staining
Description: as §6, §7

| Compound | Re-home to Lung (%) [1] | % in WAT [2] | % in LUNG [3] | phage accumulation in lung [4] | Re-home to WAT (%) [5] | specificity of homing to ASC compared to lung MSC [6] | co-localization with endothelial cells or CD45+ hematopoietic cells in WAT [7] |
| --- | --- | --- | --- | --- | --- | --- | --- |
| AVYRSTG [LU-1] | 52.2% | 0% | 71.6% |  |  |  |  |
| ESGFPTVG [LU-2, control] | 40.2% | 0% | 14.7% | associated with the stroma/vasculature of lung |  |  |  |
| GSGGMSPS [WAT-6] | 1.9% | 1.9% | 0% |  | 0% |  |  |
| LGVGPGF [LU-3] | 1.1% | 0% | 5.2% |  | 0% |  |  |
| CWLGEWLGC [mPep] |  |  |  |  |  | modest preference for ASC; also recorded: did not display any WAT specificity |  |
| YEGSEVS [WAT-4] | 2.9% | 2.9% | 0% |  | 0% |  |  |
| RFLLPQG [WAT-3] | 3.9% | 3.9% | 0% |  | 0% |  |  |
| NCCCC[C@@H]1NC(=O)[C@H](Cc2c[nH]c3ccccc23)NC(=O)[C@H](CO)NC(=O)[C@@H](N)CSSC[C@@H](C(=O)O)NC(=O)[C@H](CCC(=O)O)NC(=O)CNC(=O)[C@H](Cc2ccccc2)NC(=O)[C@H](Cc2c[nH]c3ccccc23)NC(=O)[C@H](Cc2ccc(O)cc2)NC1=O [WAT-7, SWKYWFGE] |  |  |  |  |  |  | did not co-localize |
| GQWLGNWL [WAT-8] | 13.6% | 13.6% | 0% |  | 0% | modest preference for ASC |  |
| KHYGGGVA [WAT-1] | 9.1% | 9.1% | 0% |  | 1.1% |  |  |
| LRQGNPT [WAT-5] | 1.9% | 1.9% | 0% |  | 0% |  |  |
| IRGKAGR [LU-4] | 1.1% | 0% | 5.2% |  | 0% |  |  |
